Data: PubChem BioAssay (NCI)
Several values for one entry are separate records, joined by “and”; a condition that tells them apart may be missing. Equal entries are not always repeated.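 Growth conditions: 96-well plates. Treatment: test compound, 48 hours, 5 concentrations. Analysis: linear interpolation between bracketing concentrations; unreached endpoints set to highest concentration. The concentration for 50% growth inhibition is given as GI50. TGI: concentration producing complete growth inhibition.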

Test system: MDA-MB-468 breast
Test: growth of human tumour cells (NCI), 48 h

SMILES	GI50	TGI
CCCCCCCCCCCCN1C(C)=CS/C1=C\C=C\c1scc(C)[n+]1CCCCCCCCCCCC	0.251 µM	1.39 µM
Cc1ccc(S(=O)ON2CCC(C(=O)O)(c3ccccc3)CC2)cc1 (configuration not stated)	> 100 µM	> 100 µM
CN1CCN(Cc2ccc(-c3cc4ncnc(Nc5ccc(OCc6cccc(F)c6)c(Cl)c5)c4s3)o2)CC1	0.292 µM	3.22 µM
CC/C=C\C[C@H](O)C/C=C1/C(=O)C=C[C@@H]1C/C=C\CCCC(=O)NC(C)C	1.67 µM	3.89 µM
COC(=O)/C=C/c1cc(O)c2c(c1)C(C(=O)OC)C(c1ccc(O)c(O)c1)O2 (configuration not stated)	0.521 µM and 0.646 µM	9.94 µM and 11.3 µM
Cn1c(C(N)=O)cc2c1-c1nc(Nc3ccccc3)ncc1CCC2	3.52 µM	15 µM
O=C1/C(=C/c2cccc([N+](=O)[O-])c2)COc2ccc(O)c(O)c21	1.33 µM	3.12 µM
CCN(CC)c1ccc(/C=N/NC(=O)c2ccc(S(N)(=O)=O)cc2)cc1	0.376 µM	3.66 µM
Nc1c(C(=O)Nc2ccccc2)sc2nc3c(cc12)CCCCCC3	0.312 µM	3.73 µM
Cc1ccc(Nc2nc(NCCO)c3ccccc3n2)cc1C	0.402 µM	3.13 µM
CC(C)C[C@H](NC(=O)[C@H](Cc1ccccc1)n1ccc(N2CCCCC2)cc1=O)B(O)O	0.264 µM	0.745 µM
CC(=O)Oc1ccccc1C(=O)Nc1ccc(C(=O)/C=C/c2ccncc2)cc1	22.3 µM	98 µM
CS(=O)(=O)c1ccc(Oc2cc(F)cc(C#N)c2)c2c1[C@H](O)[C@H](F)[C@@H]2F	> 100 µM	> 100 µM
O=[N+]([O-])c1cnc(Sc2ccncn2)c([N+](=O)[O-])c1	1.72 µM	3.55 µM
Cn1ccnc1C(=O)/C=C/c1ccc(CC(=O)Nc2ccc(Cl)cc2)cc1	1.03 µM	11.3 µM
O=[N+]([O-])c1ccc(N2CCN(Cc3ccccc3)CC2)c2c1no[n+]2[O-]	1.12 µM	2.68 µM

SMILES	GI50	TGI
O=C(Nc1ccc(Cl)c([N+](=O)[O-])c1)Nc1nc2ccccc2s1	3.53 µM	9.76 µM
CNc1ccccc1C(=O)N/N=C/C=C/c1ccccc1	0.503 µM	15.1 µM
COc1cc(/C=C(/C)[N+](=O)[O-])ccc1O	1.58 µM and 1.78 µM	3.2 µM and 3.62 µM
CC(C)C[C@@H](NC(=O)[C@@H](Cc1ccccc1)NC(=O)c1cnccn1)B1O[C@H]2[C@H](O)[C@@H](C(=O)NCCCC[C@@H]3NC(=O)[C@@H](Cc4ccccc4)NC(=O)[C@H](CC(=O)O)NC(=O)CNC(=O)[C@H](CCCN=C(N)N)NC3=O)O[C@@H](CN)[C@H]2O1	0.00293 µM and 0.005 µM	0.00906 µM and 0.00535 µM
N#CC1=C(N)Oc2cc3c(cc2C1c1cccs1)OCO3 (configuration not stated)	0.219 µM	3.03 µM
CCNC(=O)C[C@@H]1N=C(c2ccc(Cl)cc2)c2cc(OC)ccc2-n2c(C)nnc21	2.88 µM	> 100 µM
Oc1c(CN2CCC(N3CCOCC3)CC2)cc(Cc2cc(CN3CCC(N4CCOCC4)CC3)c(O)c3ncccc23)c2cccnc12	1.7 µM	6.6 µM
O=C(Nc1ccc(-c2nc3cc4ccccc4cc3[nH]2)cc1)c1cccc(Br)c1	2.41 µM	6.54 µM
COc1cccc(-c2nn(-c3ccccc3)cc2-c2ccnc(NCCNS(=O)(=O)c3ccc(Cl)cc3)c2)c1	3.9 µM	64.6 µM
CCc1ccc(-c2nnc(COc3ccc(-c4nc5ccc(C)cc5[nH]4)cc3OC)o2)cc1	3.26 µM	16.3 µM
COc1ccc(CN2C(=O)/C(=C\c3cc(OC)c(OC)c(OC)c3)c3cc(OC)ccc32)cc1	1.94 µM	4.52 µM
CCn1c(=O)c(-c2ccn[nH]2)cc2c(C)nc(N)nc21	0.861 µM	6.25 µM
C=C1C(=O)O[C@H]2[C@H]1CC/C(COC(=O)C(=O)c1c[nH]c3ccccc13)=C\CC[C@@]1(C)O[C@@H]21	1.98 µM	3.84 µM
COc1ccc(C(=O)Cn2c(C(=O)c3ccc(OC)cc3)nc3ccccc32)cc1	0.431 µM	> 22.8 µM
O=C(Nc1ccc(S(=O)(=O)Nc2nccs2)cc1)c1cccnc1Nc1cccc(Cl)c1	13.9 µM	52.2 µM
